Measured values as given in patent US9415047B2, “Use of benzo five-membered nitrogen heterocyclic piperazine or piperidine derivatives” (Liaoning Emmy Biological Pharmaceutical Co., Ltd., priority 2012, dated 2016).
pEC50: −log10 of the molar value.

How the values were obtained:
[1] = tested on: NA constricted rabbit aorta; assay: Relaxing effects on vascular smooth muscle constricted by noradrenaline (NA) in vitro; conditions: relaxation of rabbit aorta constricted by noradrenaline (10^−5 mol/L), mean±SEM, n=5; for pEC50: Oryctolagus cuniculus
Description: Adrenaline hydrochloride (AD) (10^−5 mol/L) was added into a bath tube to induce constriction, when maximal constriction was achieved, the sample was completely flushed, K-H solution was changed for every 20 min. Contents in the tube was balanced for 60 min, when baseline recovered to be stable, noradrenaline bitartrate (NA) (10^−5 mol/L) was added to induce constriction. When the later maximal constriction response was basically consistent with the former one, the prepared compound solutions were subsequently added, including compound II-84 to II-123 solutions (1×10^−10-1×10^−2 mol/L), compound II-124 to II-157 solutions (1×10^−10-1×10^−3 mol/L), to record the waveforms. Relaxing percentage of the compound was used as Y axis, maximal relaxation response was 100%, negative logarithm of different concentration was used as X axis, to draw dose effect curve (expressed in mean±SEM ( ? ), n=5).

[2] = tested on: AD constricted rabbit aorta; assay: Relaxing effects on vascular smooth muscle constricted by adrenaline hydrochloride (AD) in vitro; conditions: relaxation of rabbit aorta constricted by adrenaline (10^−5 mol/L), mean±SEM, n=5; for pEC50: Oryctolagus cuniculus
Description: Adrenaline hydrochloride (AD) (10^−5 mol/L) was added into a bath tube to induce constriction, when maximal constriction was achieved, the sample was completely flushed, K-H solution was changed for every 20 min. Contents in the tube was balanced for 60 min, when baseline recovered to be stable, the […] was added at the same concentration to induce constriction. When the later maximal constriction response was basically consistent with the former one, the prepared compound solutions were subsequently added, including compound II-1 to II-60 solutions (1×10^−8-1×10^−3 mol/L), compound II-84 to II-123 solutions (1×10^−10-1×10^−2 mol/L) and compound II-124 to II-157 solutions (1×10^−10˜1×10^−3 mol/L), to record the waveforms. Relaxing percentage of the compound was used as Y axis, maximal relaxation response was 100%, negative logarithm of different concentration was used as X axis, to draw dose effect curve (expressed in mean±SEM ( ? ), n=5). Compounds II-2 and II-3 had the most obvious relaxing effects (FIG. 1 and FIG. 8).

[3] = tested on: high kalium concentration constricted rabbit aorta; assay: Relaxing effects on vascular smooth muscle constricted by high kalium concentration in vitro; conditions: Oryctolagus cuniculus, relaxation of rabbit aorta constricted by high kalium solution (K+ 60 mmol/L); mean±SEM, n=5
Description: Adrenaline hydrochloride (AD) (10^−5 mol/L) was added into a bath tube to induce constriction, when maximal constriction was achieved, the sample was completely flushed, K-H solution was changed for every 20 min. Contents in the tube was balanced for 60 min, when baseline recovered to be stable, K-H solution in the bath tube was replaced with high kalium concentration solution to induce constriction. When the later maximal constriction response was basically consistent with the former one, the prepared compound solutions were subsequently added, including compound II-1 to II-60 solutions (1×10^−8-1×10^−3 mol/L), compound II-84 to II-123 solutions (1×10^−10-1×10^−2 mol/L) and compound II-124 to II-157 solutions (1×10^−10-1×10^−3 mol/L), to record the waveforms. Relaxing percentage of the compound was used as Y axis, maximal relaxation response was 100%, negative logarithm of different concentration was used as X axis, to draw dose effect curve (expressed in mean±SEM ( ? ), n=5). Compounds II-2 and II-3 had the most obvious relaxing effects (FIG. 2 and FIG. 9).

Row | pEC50 [2] | pEC50 [1] | pEC50 [3] | Compound | −logEC50 [1] | −logEC50 [2]
1 |  |  |  | c1cnc(C2CCN(CCCCn3cnc4ccccc43)CC2)nc1 [II-154, N-(4-(1H-benzimidazoyl-1-yl)butyl)-4-(2-pyrimidinyl)piperidine] | 4.52 ± 0.04 | 4.72 ± 0.03
2 | 5.31 |  |  | FC(F)(F)c1cccc(C2CCN(CCCOn3cnc4ccccc43)CC2)c1 [II-134, N-(4-(1H-benzimidazole-1-yl)propoxyl)-4-(3-trifluoromethylphenyl)piperidine] | 5.15 ± 0.06 | 
3 | 5.56 |  |  | O=Cc1ccc2nnn(CCCN3CCC(c4noc5cc(F)ccc45)CC3)c2c1 [II-141, N-(3-(6-formoxyl-1H-benzotriazole-1-yl)propyl)-4-(3-(6-fluorobenzisoxazolyl))piperidine] | 5.73 ± 0.04 | 
4 | 5.03 |  |  | Clc1cccc(C2CCN(CCCCn3cnc4ccccc43)CC2)c1 [II-124, N-(4-(1H-benzimidazoyl-1-yl)butyl)-4-(3-chlorophenyl)piperidine] | 5.11 ± 0.02 | 
5 | 6.11 |  |  | COc1ccc2nnn(CCCN3CCC(c4noc5ccccc45)CC3)c2c1 [II-142, N-(3-(6-methoxylbenzotriazolyl)propyl)-4-(3-benzisoxazolyl)piperidine] | 6.07 ± 0.04 | 
6 | 5.38 |  |  | Cc1ccc2nnn(CCCN3CCC(c4noc5cc(F)ccc45)CC3)c2c1 [II-139, N-(3-(6-methyl-1H-benzotriazole-1-yl)propyl)-4-(3-(6-fluorobenzisoxazolyl))piperidine] | 5.35 ± 0.03 | 
7 |  | 5.81 |  | Fc1ccc2c(C3CCN(CCn4nnc5ccccc54)CC3)noc2c1 [II-94, N-(2-(1-benzotriazolyl)ethyl)-4-(3-(6-fluorobenzisoxazolyl))piperidine] |  | 
8 | 5.56 |  |  | FC(F)(F)c1cccc(C2CCN(CCCOn3nnc4ccccc43)CC2)c1 [II-133, N-(4-(1H-benzotriazole-1-yl)propoxyl)-4-(3-trifluoromethylphenyl)piperidine] | 5.36 ± 0.05 | 
9 | 4.89 |  |  | Fc1cccc(C2CCN(CCCCn3cnc4ccccc43)CC2)c1 [II-128, N-(4-(1H-benzimidazoyl-1-yl)butyl)-4-(3-fluorophenyl)piperidine] | 4.67 ± 0.02 | 
10 | 6.21 |  |  | FC(F)(F)c1cccc(C2CCN(CCCCn3cnc4ccccc43)CC2)c1 [II-126, N-(4-(1H-benzimidazoyl-1-yl)butyl)-4-(3-trifluoromethylphenyl)piperidine] | 6.32 ± 0.04 | 
11 |  |  |  | c1ccc2c(C3CCN(CCCCn4nnc5ccccc54)CC3)cccc2c1 [II-156, N-(4-(1H-benzotriazole-1-yl)butyl)-4-(1-naphthyl)piperidine] | 4.34 ± 0.04 | 4.22 ± 0.06
12 |  | 4.43 |  | COc1ccc2nnn(CCCN3CCC(c4n[nH]c5cc(F)ccc45)CC3)c2c1 [II-101] |  | 
13 |  | 5.73 |  | Fc1ccc2c(C3CCN(CCCCn4nnc5ccccc54)CC3)noc2c1 [II-95, N-(4-(1-benzotriazolyl)butyl)-4-(3-(6-fluorobenzisoxazolyl))piperidine] |  | 
14 | 5.31 |  |  | Fc1ccc2nnn(CCCCN3CCC(c4cccc(C(F)(F)F)c4)CC3)c2c1 [II-130, N-(4-(6-fluoro-1H-benzotriazole-1-yl)butyl)-4-(3-trifluoromethylphenyl)piperidine] | 5.21 ± 0.04 | 
15 | 5.45 | 5.26 |  | Cc1ccc2c(C3CCN(CCCn4nnc5ccccc54)CC3)noc2c1 [II-135, N-(3-(1H-benzotriazole-1-yl)propyl)-4-(3-(6-methylbenzisoxazolyl))piperidine] |  | 
16 |  |  |  | c1ccc2c(c1)nnn2CCCCN1CCC(C2CCCCC2)CC1 [II-155, N-(4-(1H-benzotriazole-1-yl)butyl)-4-cyclohexyl piperidine] | 4.44 ± 0.05 | 4.39 ± 0.05

Row | pEC50 [2] | pEC50 [1] | pEC50 [3] | Compound | −logEC50 [1] | −logEC50 [2]
17 | 5.34 | 5.04 |  | COc1ccc2c(C3CCN(CCCn4nnc5ccccc54)CC3)noc2c1 [II-136, N-(3-(1H-benzotriazole-1-yl)propyl)-4-(3-(6-methoxylbenzisoxazolyl))piperidine] |  | 
18 | 5.23 |  |  | COc1ccc2c(C3CCN(CCCCn4nnc5ccc(C#N)cc54)CC3)noc2c1 [II-146, N-(4-(6-cyanobenzotriazolyl)butyl)-4-(3-(6-methoxylbenzisoxazolyl))piperidine] | 5.09 ± 0.04 | 
19 | 5.16 |  |  | Clc1cccc(C2CCN(CCCCn3nnc4ccccc43)CC2)c1 [II-125, N-(4-(1H-benzotriazole-1-yl)butyl)-4-(3-chlorophenyl)piperidine] | 5.27 ± 0.03 | 
20 | 4.86 |  |  | c1ccc2c(c1)ncn2CCCCN1CCC(c2ccncc2)CC1 [II-153, N-(4-(1H-benzimidazoyl-1-yl)butyl)-4-(4-pyridyl)piperidine] | 4.66 ± 0.02 | 
21 |  | 4.19 |  | COc1ccc2nnn(CCCN3CCC(c4nsc5cc(F)ccc45)CC3)c2c1 [II-100] |  | 
22 | 4.76 |  |  | COc1ccccc1C1CCN(CCCCn2cnc3ccccc32)CC1 [II-129, N-(4-(1H-benzimidazoyl-1-yl)butyl)-4-(2-methoxylphenyl)piperidine] | 4.55 ± 0.03 | 
23 |  |  |  | c1ccc2nc(C3CCN(CCCCn4nnc5ccccc54)CC3)cnc2c1 [II-157, N-(4-(1H-benzotriazole-1-yl)butyl)-4-(2-quinoxalinyl)piperidine] | 4.53 ± 0.05 | 4.83 ± 0.05
24 | 5.61 | 5.73 |  | Fc1ccc2c(C3CCN(CCCn4nnc5ccc(F)cc54)CC3)noc2c1 [II-137, N-(3-(6-fluoro-1H-benzotriazole-1-yl)propyl)-4-(3-(6-fluorobenzisoxazolyl))piperidine] |  | 
25 | 5.42 | 5.22 |  | Fc1ccc2c(C3CCN(CCCn4nnc5ccc(Cl)cc54)CC3)noc2c1 [II-138, N-(3-(6-chloro-1H-benzotriazole-1-yl)propyl)-4-(3-(6-fluorobenzisoxazolyl))piperidine] |  | 
26 | 4.79 |  |  | N#Cc1ccc2nnn(CCCCN3CCC(c4cccc(C(F)(F)F)c4)CC3)c2c1 [II-132, N-(4-(6-cyano-1H-benzotriazole-1-yl)butyl)-4-(3-trifluoromethylphenyl)piperidine] | 4.53 ± 0.02 | 
27 | 6.36 |  |  | FC(F)(F)c1cccc(C2CCN(CCCCn3nnc4ccccc43)CC2)c1 [II-127, N-(4-(1H-benzotriazole-1-yl)butyl)-4-(3-trifluoromethylphenyl)piperidine] | 6.45 ± 0.03 | 
28 |  | 5.31 |  | N#Cc1ccc2nnn(CCCCN3CCC(c4noc5cc(F)ccc45)CC3)c2c1 [II-96, N-(4-(6-cyanobenzotriazolyl)butyl)-4-(3-(6-fluorobenzisoxazolyl))piperidine] |  | 
29 | 4.01 |  | 3.71 | N#Cc1ccc2nnn(CCCCN3CCN(c4cccc(C(F)(F)F)c4)CC3)c2c1 [II-55, 6-cyano-1-(4-(4-(3-trifluoromethylphenyl)piperazine-1-yl)butyl)-1H-benzotriazole] |  | 
30 | 4.05 |  | 3.75 | Fc1ccc2c(N3CCN(CCCCn4cnc5ccccc54)CC3)coc2c1 [II-21, 1-(4-(4-(3-(6-fluorobenzofuranyl))piperazine-1-yl)butyl)-1H-benzimidazole] |  | 
31 | 4.26 |  | 3.51 | COC(=O)c1ccc2nnn(CCCCN3CCN(c4cccc(C(F)(F)F)c4)CC3)c2c1 [II-56, 6-methoxycarbonyl-1-(4-(4-(3-trifluoromethylphenyl)piperazine-1-yl)butyl)-1H-benzotriazole] |  | 
